Assay results reported in patent publication US5877199A, “Heterocyclic compounds, their preparation and their therapeutic use” (priority 1994, dated 1999).

biological target: T1, m1 muscarinic receptors (Homo sapiens, UniProt P11229); test: Effect on ACh binding: ACh inhibition of 3H-NMS binding (indirect assay) on CHO cell membranes; conditions: tested at 3 μg/ml; 0.15 nM 3H-NMS, 30 μM ACh, 0.2 mM GTP, pH 7.4, 30° C., two hours
T1 construct: expressed in transfected cells; host or cells: CHO (Chinese Hamster Ovary) cells, membranes
T1 sequence (P11229 1-460): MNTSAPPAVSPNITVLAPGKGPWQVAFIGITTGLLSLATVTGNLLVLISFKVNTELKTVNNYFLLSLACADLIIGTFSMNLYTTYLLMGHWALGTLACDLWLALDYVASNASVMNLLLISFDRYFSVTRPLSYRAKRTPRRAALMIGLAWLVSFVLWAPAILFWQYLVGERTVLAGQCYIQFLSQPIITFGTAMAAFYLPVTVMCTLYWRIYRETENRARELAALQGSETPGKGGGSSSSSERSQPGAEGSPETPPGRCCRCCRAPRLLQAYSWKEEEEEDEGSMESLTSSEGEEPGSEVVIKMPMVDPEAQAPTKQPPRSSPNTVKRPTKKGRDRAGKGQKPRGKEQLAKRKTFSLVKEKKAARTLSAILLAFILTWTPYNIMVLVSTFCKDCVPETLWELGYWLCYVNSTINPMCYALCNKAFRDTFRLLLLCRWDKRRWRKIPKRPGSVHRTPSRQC
Source text: The compounds of the present invention may be assayed for allosteric activity at m1 muscarinic receptors as described below, although the assays we describe are not necessarily exhaustive, and other assays may be employed, as desired, to establish allosterism.
A suitable cell line is CHO (Chinese Hamster Ovary), which are readily engineered to express only one receptor sub-type.
To obtain the large amount of cell membranes required, plates of 530 cm^2 culture area were used. CHO cells which express m1, m2, m3 and m4 receptors were grown separately in MEM alpha medium containing 10% newborn calf serum and antibiotics. When cells reached confluence, they were washed twice with 10 ml of 20 mM HEPES containing 10 mM EDTA (pH 7.4), scraped into the same buffer and homogenized using a Polytron (trademark) homogenizer (setting 5-6 for 5 sec×2). Membrane pellets were obtained by centrifugation (40000×g, 10 min, 4° C.) and resuspended in 20 mM HEPES-0.1 mM EDTA (pH 7.4). Centrifugation and resuspension were repeated twice to wash the cell membranes. After measurement of membrane protein, the membranes (1 or 2 mg protein/ml) were stored at -70° C.
While the direct assay measures ACh (=acetylcholine) binding only to the high affinity state, the indirect assay measures effects only at the low affinity state. This is achieved by including 0.2 mM GTP in the assay. In this assay a fixed concentration of ^3 H-NMS (roughly the Kd value) is incubated in the absence and presence of a fixed concentration of ACh (at about the IC50 value) and the effects of three concentrations of test agent are measured, again in the absence and presence of ACh.
Calculating the effects on ^3 H-NMS binding alone is as follows: binding in the presence of the agent is expressed as a percentage of binding in its absence and, if the effect is inhibitory, an IC50 is estimated graphically. The assay also contains a single high concentration of ^3 H-NMS (4 nM, about 30 times the Kd) which provides an estimate of Bmax (i.e. maximum binding).
Expressing the effect on cold ACh binding will be explained with reference to FIGS. 1a, b and c. These figures show theoretical data and the effects of the transformations described below. In FIGS. 1a and 1b ^3 H-NMS and cold ACh are present at their Kd concentrations; in FIG. 1a the agent has a negative allosteric effect on ^3 H-NMS, while in FIG. 1b it has a positive allosteric effect on ^3 H-NMS. The left panels show the amount of ^3 H-NMS specifically bound in the assay. If the affinity of ACh is reduced by the test agent, as shown in the top panels of FIGS. 1a and 1b, the inhibition by ACh will decrease, but the counts recovered will also depend on the effect of the agent on ^3 H-NMS binding alone. To calculate the effect on ACh binding the inhibitory effect of ACh is first calculated as a percent of its own control in the absence of ACh. Next it is assumed that fractional inhibition is the same as tractional occupancy, and inhibition in the presence of agent is expressed as a percentage of inhibition in the absence of agent. The effects of these transformations are shown in the centre panels. Expressing inhibition by ACh in the presence of agent as a percentage of inhibition in the absence of agent allows the effect of the agent on cold ACh binding to be seen on the same scale as the effect on ^3 H-NMS and ^3 H-ACh binding and is generally preferred.
If the concentration of ^3 H-NMS used in the indirect assay is around the Kd value or less, the transformation described above provides a qualitative and semi-quantitative measure of the agent's effect. If a higher concentration of ^3 H-NMS is used, or if the agent has a positive allosteric effect on ^3 H-NMS, then the results of this transformation may be misleading. […] It is assumed that ACh binds to a single affinity state i.e. that its inhibition curve has a slope of 1, and so an IC50 is calculated from the percentage inhibition of control binding. […]

Row | Structure (SMILES) | Effect on ACh Binding
1 | CSc1c(CC(=O)O)ccc2c3ccccc3n(Cc3ccccc3)c12 [Example 5, (9-Benzyl-1-methylthiocarbazol-2-yl)acetic acid] | 2.62
2 | CSc1c(CC(=O)O)ccc2c3ccccc3n(Cc3ccc(Cl)cc3)c12 [Example 7, [9-(4-Chlorobenzyl)-1-methylthiocarbazol-2-yl]acetic acid] | 3.55
3 | CSc1c(CC(=O)OC(C)(C)C)ccc2c3ccccc3n(Cc3ccc(F)cc3)c12 [Example 8, tert-Butyl [9-(4-fluorobenzyl)-1-methylthiocarbazol-2-yl]acetate] | 3.46
4 | CSc1c(CC(=O)O)cc(C)c2c3ccccc3n(Cc3ccccc3)c12 [Example 14, (9-Benzyl-4-methyl-1-methylthiocarbazol-2-yl)acetic acid] | 3.89
5 | CSc1c(C(Cc2ccccc2)C(=O)O)cc(C)c2c1[nH]c1ccccc12 (stereo not drawn) [Example 15, 2-(4-Methyl-1-methylthiocarbazol-2-yl)-3-phenylpropionic acid] | 2.42
6 | CSc1c(C(Cc2ccccc2)C(=O)O)ccc2c3ccccc3n(Cc3ccccc3)c12 (stereo not drawn) [Example 17, 2-(9-Benzyl-1-methylthiocarbazol-2-yl)-3-phenylpropionic acid] | 2.50
7 | CSc1c(C(Cc2ccc([N+](=O)[O-])cc2)C(=O)O)ccc2c3ccccc3n(Cc3ccc([N+](=O)[O-])cc3)c12 (stereo not drawn) [Example 23, 2-[9-(4-Nitrobenzyl)-1-methylthiocarbazol-2-yl]-3-(4-nitrophenyl)propionic acid] | 2.72
8 | Cc1c(CCC(=O)O)ccc2c3ccccc3n(Cc3ccccc3)c12 [Example 37, 3-(9-Benzyl-1-methylcarbazol-2-yl)propionic acid] | 2.09
9 | CSc1c(OCC(=O)O)ccc2c3ccccc3n(Cc3ccccc3)c12 [Example 46, (9-Benzyl-1-methylthiocarbazol-2-yloxy)acetic acid] | 2.21
10 | O=C(O)CC1CCc2[nH]c3ccccc3c2C1 (stereo not drawn) [Example 61, (1,2,3,4-Tetrahydrocarbazol-3-yl)acetic acid] | 2.11
11 | CSc1c(Cc2nnn[nH]2)ccc2c3ccccc3n(Cc3ccccc3)c12 [Example 77, 5-[(9-Benzyl-1-methylthiocarbazol)-2-ylmethyl]-1H-tetrazole] | 3.69
12 | O=C(O)CC1CCc2c(n(Cc3ccccc3)c3ccccc23)S1 (stereo not drawn) [Example 83, 2-(9-Benzyl-2,3,4,9-tetrahydrothiopyrano[2,3-b]indol-2-yl) acetic acid] | 2.08
13 | c1ccc(Cn2c3c(c4ccccc42)CCC(Cc2nnn[nH]2)S3)cc1 (stereo not drawn) [Example 84, 5-(9-Benzyl-2,3,4,9-tetrahydrothiopyrano[2,3-b]indol-2-yl)methyltetrazole] | 3.30
14 | O=C(O)Cc1cccc2c1ccn2Cc1ccccc1 [Example 91, (1-Benzylindol-4-yl)acetic acid] | 2.76
15 | CSc1c(Cc2nnn[nH]2)cc(C)c2c3ccccc3n(Cc3ccccc3)c12 [Example 97, 5-[(9-Benzyl-4-methyl-1-methylthiocarbazol)-2-yl-methyl]-1H-tetrazole] | 4.97
16 | CCCc1cc(CC(=O)O)c(SC)c2c1c1ccccc1n2Cc1ccccc1 [Example 116, (9-Benzyl-1-methylthio-4-propylcarbazol-2-yl)acetic Acid] | 3.99
17 | CCCOc1c(CC(=O)O)cc(C)c2c3ccccc3n(Cc3ccccc3)c12 [Example 132, (9-Benzyl-4-methyl-1-propoxycarbazol-2-yl)acetic Acid] | 2.68
18 | Cc1cc(CC(=O)O)c(OCc2ccccc2)c2c1c1ccccc1n2Cc1ccccc1 [Example 134, (9-Benzyl-1-benzyloxy-4-methylcarbazol-2-yl)acetic Acid] | 3.40
19 | CSc1c(CC(=O)O)cc(C)c2c3ccccc3n(Cc3cccc(OCc4ccccc4)c3)c12 [Example 136, [9-(3-Benzyloxybenzyl)-4-methyl-1-methylthiocarbazol-2-yl]acetic Acid] | 2.36
20 | CSc1c(CC(=O)O)cc(C)c2c3ccccc3n(Cc3cccc(F)c3)c12 [Example 141, [9-(3-Fluorobenzyl)-4-methyl-1-methylthiocarbazol-2-yl]acetic Acid] | 3.81
21 | CSc1c(CC(=O)O)cc(C)c2c3ccccc3n(Cc3ccc(F)cc3)c12 [Example 143, [9-(4-Fluorobenzyl)-4-methyl-1-methylthiocarbazol-2-yl]acetic Acid] | 5.36
22 | CSc1c(CC(=O)O)cc(C)c2c3ccccc3n(Cc3cccc(Cl)c3)c12 [Example 145, [9-(3-Chlorobenzyl)-4-methyl-1-methylthiocarbazol-2-yl]acetic Acid] | 5.27
23 | CSc1c(CC(=O)O)cc(C)c2c3ccccc3n(Cc3ccc(Cl)c(Cl)c3)c12 [Example 149, [9-(3,4-Dichlorobenzyl)-4-methyl-1-methylthiocarbazol-2-yl]acetic Acid] | 6.49
24 | CSc1c(Cc2nnn[nH]2)cc(C)c2c3ccccc3n(Cc3ccc(Cl)c(Cl)c3)c12 [Example 152, 5-[9-(3,4-Dichlorobenzyl)-4-methyl-1-methylthiocarbazol-2-yl]methyl-1H-tetrazole] | 2.02
25 | O=C(O)Cc1ccc2c3ccccc3n(Cc3cccc(OCc4ccccc4)c3)c2c1 [Example 165, [9-(3-Benzyloxybenzyl)carbazol-2-yl]acetic Acid] | 2.24
26 | CCCc1cc(C(Cc2cccc([N+](=O)[O-])c2)C(=O)O)c(SC)c2c1c1ccccc1n2Cc1cccc([N+](=O)[O-])c1 (stereo not drawn) [Example 172, 2-[1-Methylthio-9-(3-nitrobenzyl)-4-propylcarbazol-2-yl]-3-(3-nitrophenyl)propionic Acid] | 2.59
27 | CCCc1cc(CC(=O)O)c(SC)c2c1c1ccccc1n2Cc1ccc([N+](=O)[O-])cc1 [Example 176, [1-Methylthio-9-(4-nitrobenzyl)-4-propylcarbazol-2-yl]acetic Acid] | 2.08
28 | CSc1c(CC(=O)O)cc(C)c2c3ccccc3n(Cc3ccc(Cl)cc3)c12 [Example 180, [9-(4-Chlorobenzyl)-4-methyl-1-methylthiocarbazol-2-yl]acetic Acid] | 5.02
29 | COc1ccc2c(c1)c1c(C)cc(CC(=O)O)c(SC)c1n2Cc1ccccc1 [Example 182, (9-Benzyl-6-methoxy-4-methyl-1-methylthiocarbazol-2-yl)acetic Acid] | 2.57
30 | CSc1c(CC(=O)O)cc(C(C)C)c2c3ccccc3n(Cc3ccccc3)c12 [Example 190, (9-Benzyl-4-isopropyl-1-methylthiocarbazol-2-yl)acetic Acid] | 4.78
